# Test results from US20210052600A1, “THERAPEUTIC AGENTS FOR STRESS URINARY INCONTINENCE AND INCOTINENCE OF FECES” (Takeda Pharmaceutical Company Limited, priority 2017, published 2021).
# Tested on: urethral resistance increasing effect of Compound A′
# Experiment: Influence of antagonists (SB 242084, methiothepin) on urethral resistance increasing effect of Compound A′ in rats
# Type: in vivo, rat
# Conditions: mean ± SEM; for LPP Increase: Post minus Pre; for LPP Pre: before administration
# Description: Ninety female rats of SD strain were used. […] Isoflurane inhalation was added during the surgery, if necessary. In the experiment with intrathecal administration, the dura mater was exposed by laminectomy and then partially opened by incision, through which a catheter (PE-10) filled with saline was then implanted at the level of the L6-S1 site, followed by the closing of the incision. After opening of the abdomen, a catheter (PE-90) was inserted into the bladder. In order to secure reduced urethral resistance, unilateral nerve to iliococcygeus and pubococcygeus muscles was transected. For intraduodenal administration, another catheter (PE-50) was inserted into the duodenum in advance. The abdominal muscle and skin were each closed with sutures. Two (right and left) sites of abdominal skin near the diaphragm were cut to expose abdominal muscle. The bladder was emptied through the catheter, followed by the injection of 0.2 to 0.3 mL of Evans blue solution. Change in intravesical pressure was recorded using the bladder catheter via a pressure transducer, an electric signal amplifier, and an analog-to-digital converter. While change in intravesical pressure was recorded, the presence or absence of fluid leakage from the urethral orifice was observed under the electrical stimulation of the exposed abdominal muscle using an electrical stimulator and an isolator. […] The peak of the intravesical pressure during the stimulation of the abdominal muscle was measured, and the lowest pressure at which the fluid leakage was observed among the trials was defined as LPP for the electrical abdominal muscle stimulation method. In order to examine whether the urethral resistance increasing effect of Compound A′ is based on its agonistic potency on 5-HT2C receptors, SB 242084, methiothepin, or a vehicle was intravenously administered, and Compound A′ or a vehicle was intraduodenally administered 5 minutes later. SB 242084 was dissolved in a mixed solution of N,N-dimethylacetamide and polyethylene glycol 400 (1:1) and administered at 0.03 mg/0.5 mL/kg, 0.1 mg/0.5 mL/kg and 0.3 mg/0.5 mL/kg. Methiothepin was dissolved in saline and administered at 0.03 mg/0.5 mL/kg. 0.1 mg/0.5 mL/kg and 0.3 mg/0.5 mL/kg. Compound A′ was suspended in 0.5% MC and administered at 3 mg/mL/kg. LPP was measured again 30 minutes after Compound A′ administration. In order to examine where Compound A′ works in the body to increase urethral resistance, the blocking of the effect of Compound A′ was confirmed by blocking the functions of Compound A′ by giving methiothepin at a particular site in the body. Particularly, in the experiment with intrathecal administration, methiothepin or a vehicle was intrathecally administered, and Compound A′ or a vehicle was intraduodenally administered 5 minutes later. Methiothepin was dissolved in saline and 20 μL of the obtained solution was administered. Compound A′ was suspended in 0.5% MC and administered at 3 mg/mL/kg. LPP was measured again 30 minutes after Compound A′ administration.
# Regarding change in LPP before and after drug administration, the differences between the mean values of the Compound A′-treated and vehicle-treated groups were analyzed by the Student's t test or the Welch's test. In order to analyze the influence of the antagonists on the effect of Compound A′, the differences between the mean values of the SB 242084- or methiothepin- and Compound A′-administered group and the vehicle- and Compound A′-administered group were analyzed by the one-tailed Williams' test.
# [1] = methiothepin 10 μg intrathecal + Compound A′ 3 mg/kg i.d.
# [2] = methiothepin 30 μg intrathecal + Compound A′ 3 mg/kg i.d.
# [3] = methiothepin 0.03 mg/kg i.v. + Compound A′ 3 mg/kg i.d.
# [4] = methiothepin 100 μg intrathecal + Compound A′ 0 mg/kg i.d.
# [5] = methiothepin 100 μg intrathecal + Compound A′ 3 mg/kg i.d.
# [6] = methiothepin 0.1 mg/kg i.v. + Compound A′ 3 mg/kg i.d.
# [7] = methiothepin 0.3 mg/kg i.v. + Compound A′ 0 mg/kg i.d.
# [8] = methiothepin 0.3 mg/kg i.v. + Compound A′ 3 mg/kg i.d.
structure (smiles),measurement,setting,value
"CSc1ccc2c(c1)C(N1CCN(C)CC1)Cc1ccccc1S2.O=C(O)/C=C\C(=O)O (centres unmarked) [methiothepin, methiothepin maleate]",LPP Post,"methiothepin 10 μg intrathecal + Compound A′ 3 mg/kg i.d., 30 minutes after Compound A′",69.4 ± 10.4 cmH2O
same,LPP Increase,[1],35.3 ± 9.8 cmH2O
same,LPP Pre,[1],34.1 ± 3.2 cmH2O
same,LPP Post,"methiothepin 30 μg intrathecal + Compound A′ 3 mg/kg i.d., 30 minutes after Compound A′",52.1 ± 8.6 cmH2O
same,LPP Increase,[2],11.1 ± 6.5 cmH2O
same,LPP Pre,[2],41.0 ± 3.6 cmH2O
same,LPP Increase,[3],17.9 ± 4.3 cmH2O
same,LPP Pre,[3],44.4 ± 2.5 cmH2O
same,LPP Post,"methiothepin 100 μg intrathecal + Compound A′ 0 mg/kg i.d., 30 minutes after i.d. administration",40.5 ± 3.2 cmH2O
same,LPP Increase,[4],−5.3 ± 3.0 cmH2O
same,LPP Pre,[4],45.8 ± 4.8 cmH2O
same,LPP Post,"methiothepin 100 μg intrathecal + Compound A′ 3 mg/kg i.d., 30 minutes after Compound A′",45.9 ± 5.5 cmH2O
same,LPP Increase,[5],5.6 ± 3.5 cmH2O
same,LPP Pre,[5],40.4 ± 3.0 cmH2O
same,LPP Post,"methiothepin 0.1 mg/kg i.v. + Compound A′ 3 mg/kg i.d., 30 minutes after Compound A′",59.9 ± 3.7 cmH2O
same,LPP Increase,[6],9.5 ± 3.3 cmH2O
same,LPP Pre,[6],50.4 ± 4.4 cmH2O
same,LPP Post,"methiothepin 0.3 mg/kg i.v. + Compound A′ 0 mg/kg i.d., 30 minutes after i.d. administration",44.0 ± 7.1 cmH2O
same,LPP Increase,[7],−2.0 ± 2.5 cmH2O
same,LPP Pre,[7],46.0 ± 9.6 cmH2O
same,LPP Post,"methiothepin 0.3 mg/kg i.v. + Compound A′ 3 mg/kg i.d., 30 minutes after Compound A′",40.6 ± 4.9 cmH2O
same,LPP Increase,[8],−2.2 ± 2.9 cmH2O
same,LPP Pre,[8],42.9 ± 3.8 cmH2O
